By IC50 is commonly meant the point on the concentration scale where inhibition reaches its midpoint.

A value given as a limit tells only on which side of the number the result lay.

Test [1] concerns A549. Kind of test: Cytotoxicity against human A549 cells assessed as cell viability after 72 hrs by MTT assay. It is filed as functional, cell-based. The following applies: A549, 72 h.
Test [2] deals with HCT-8. Kind of test: Cytotoxicity against human HCT8 cells assessed as cell viability after 72 hrs by MTT assay. As to conditions: HCT-8, 72 h. It is filed as functional, cell-based. Background: Formazan colour is commonly taken as a measure of viable cells.
Test [3] relates to KETR3. Kind of test: Cytotoxicity against human Ketr3 cells assessed as cell viability after 72 hrs by MTT assay. It is filed as functional, cell-based. The following applies: KETR3, 72 h.
Test [4] can be described thus: Cytotoxicity against human HELF cells assessed as cell viability after 72 hrs by MTT assay. It is filed as functional, cell-based.
Test [5] concerns HeLa. Kind of test: Cytotoxicity against human HeLa cells assessed as cell viability after 72 hrs by MTT assay. It is filed as functional, cell-based.
Test [6] can be described thus: Cytotoxicity against human BGC803 cells assessed as cell viability after 72 hrs by MTT assay. It is filed as functional, cell-based. The following applies: BGC803, 72 h.
Test [7] relates to A2780. Kind of test: Cytotoxicity against human A2780 cells assessed as cell viability after 72 hrs by MTT assay. The following applies: A2780, 72 h. It is filed as functional, cell-based.
For test [8], the system named is KB. Kind of test: Cytotoxicity against human KB cells assessed as cell viability after 72 hrs by MTT assay. It is filed as functional, cell-based.
The subject of test [9] is Bel-7402. Kind of test: Cytotoxicity against human Bel7402 cells assessed as cell viability after 72 hrs by MTT assay. It is filed as functional, cell-based. The following applies: Bel-7402, 72 h.
Test [10] relates to MCF7. Kind of test: Cytotoxicity against human MCF7 cells assessed as cell viability after 72 hrs by MTT assay. It is filed as functional, cell-based. As to conditions: MCF7, 72 h.
Test [11] has as its system A549. Kind of test: Ratio of Saframycin A IC50 to compound IC50 for human A549 cells. It is filed as functional.

Consider `COC1=C(C)C(=O)C2=C(C1=O)[C@@H]1[C@@H]3CC4=C(C(=O)C(OC)=C(C)C4=O)[C@H](CNC(=O)c4cnccn4)N3[C@@H](C#N)[C@H](C2)N1C`, for which the IC50 is 1.89 nM in [1]; 10.5 nM in test [2]; 1.61 nM in test [3]; 1.53 nM in [4]; 1.89 nM in test [5]; 12.1 nM in test [6]. In addition, the IC50 in test [7] was 7.17 nM; in [8], 1.85 nM; in test [9] it was 1.87 nM; in test [10], 3.06 nM. Further, the “Ratio IC50” value in test [11] is reported as 20.

Consider `COc1c(C)cc2c(c1O)[C@@H]1[C@@H]3Cc4cc(C)c(OC)c(O)c4[C@H](CNC(=O)OC(C)(C)C)N3[C@@H](C#N)[C@H](C2)N1C`, for which the IC50 in test [1] turned out to be 26.8 nM; in test [2] it was 63.8 nM; in test [3] it was 23.7 nM; in test [4] it was 19.5 nM; in [5], 92.7 nM; in [6], 32.1 nM. In addition, the IC50 is 45 nM in [7], 31.4 nM in [8], 32.4 nM in test [9] and 17.3 nM in [10].

`COC1=C(C)C(=O)C2=C(C1=O)[C@@H]1[C@@H]3CC4=C(C(=O)C(OC)=C(C)C4=O)[C@H](CNC(=O)c4nccc5ccccc45)N3[C@@H](C#N)[C@H](C2)N1C`: the IC50 in test [1] was 88.6 nM; in test [2] it was over 100 nM; in test [3] it was over 100 nM; in test [4] it was 85.4 nM; in test [5] it was 26.6 nM; in [6], 58.5 nM. In addition, the IC50 in test [7] was 98 nM; in test [8] it was 75 nM; in test [9], 84.7 nM; in test [10], 24.2 nM.

With `COC1=C(C)C(=O)C2=C(C1=O)[C@@H]1[C@@H]3CC4=C(C(=O)C(OC)=C(C)C4=O)[C@H](CNC(=O)c4cc(OC)c(OC)c(OC)c4)N3[C@@H](C#N)[C@H](C2)N1C`, the IC50 in test [1] is 18.8 nM; in [2] it was 14.9 nM; in [3] it was 3.63 nM; in test [4], 3.38 nM; in test [5], 2.52 nM; in test [6], 4.19 nM. In addition, the IC50 stood at 3.67 nM in [7], 1.27 nM in test [8], 3.03 nM in test [9] and 1.13 nM in test [10].

Source of the values: ChEMBL document CHEMBL1944637, “Asymmetric synthesis and cytotoxicity of (-)-saframycin A analogues” (Eur J Med Chem, 2012).
